{"source": "paper PMC12535076", "about": "“Neurotherapeutic effects of Vutiglabridin as a Paraoxonase-2 modulator in preclinical models of Parkinson’s disease” (Molecular Neurodegeneration, 2025)", "key": {"[1]": {"test_system": "SH-SY5Y human neuroblastoma cells", "assay": "Cell-based mitochondrial activity assays in MPP+-treated SH-SY5Y cells", "procedure": "Human SH-SY5Y neuroblastoma cells (ATCC® (CRL-2266™; Manassas, VA, USA) were first cultured in Dulbecco’s Modified Eagle Medium (DMEM)/F12 supplemented with 10% fetal bovine serum (FBS), 100 U/mL penicillin, and 100 µg/mL streptomycin (complete media, CM) at 37 °C with 5% CO2. Cells (5 × 10^4 cells/well) then were cultured in 96-well plates for 24 h followed by incubation in serum-deficient media (SDM, culture media containing 0.5% FBS) for 16 h. […] The treated cells were harvested according to the purpose and analyzed.\nA systemic cell-based mitochondrial function analysis system was established using SH-SY5Y cells in 96-well plates based on fluorescence detection methods as described previously. The assay system covers quantitative assays for methyl thiazyl tetrazolium-mitochondrial dehydrogenase activity (MTT), TMRE-based mitochondrial membrane potential (TMRE), ATP contents, and ROS of cells. Cells in black 96-well culture plate were incubated with 200 nM TMRE and 0.5 µM Hoechst 33,342 for 30 min at 37 °C in phenol red-free SDM, or with 1 µM CM-H2DCFDA or 5 µM MitoSOX and 0.5 µM Hoechst 33,342 for 1 h at 37 °C. Fluorescence intensities at 550 nm/580 nm for TMRE, at 510 nm/580 nm MitoSOX, or at 494 nm/522 nm for DCF-DA were normalized by Hoechst intensity at 355 nm/480 nm (Spectramax Gemini EM, Molecular Devices, Sunnyvale, CA, USA).\nEndogenous OCR was measured in adherent SH-SY5Y cells using a Seahorse XF-24 Analyzer (Seahorse Bioscience, Billerica, MA, USA) following the manufacturer’s protocol with minor modifications. Briefly, OCR assays were performed using SH-SY5Y cells (5.0 × 10^3 cells/well) equilibrated in DMEM without sodium bicarbonate in XF-24 microplates. After measuring basal OCR for 3 min, oligomycin (1 µg/mL), carbonyl cyanide-p-trifluoromethoxyphenylhydrazone (FCCP) (0.3 µM), and rotenone (0.1 µM) were consecutively added into each well to reach their final working concentrations. The OCR was calculated from 3-min measurement cycles and normalized to cell number."}, "[2]": {"test_system": "MPTP-injected C57BL/6 mice", "assay": "MPTP-injected sub-acute PD mouse model (pole test, rotarod, TH immunohistochemistry)", "format": "in vivo", "conditions": "MPTP mice", "procedure": "Animals were allowed at least 1 week of acclimatization before being subjected to the study and were housed in a regulated environment with a 12-h/12-h light/dark cycle. Food and water were provided ad libitum. The animal experiment was carried out in accordance with the National Institutes of Health Guide for the Care and Use of Laboratory Animals (NIH Publications No. 80–23; revised 1996). All procedures for handling mice were carried out in accordance with “Principles of Laboratory Animal Care” and the Animal Care and Use guidelines of Kyung Hee University, Seoul, Korea (KHSASP-20-163).\nMPTP was dissolved in distilled water and injected intraperitoneally for five days from day 10 of the 21-day experiment period. Vuti or rasagiline was administered via oral gavage for 21 days. Vehicles for both Vuti and MPTP (distilled water) were administered to all mice. Mice were randomly divided for all studies. For the first set of studies shown in Fig. 3, each group consisted of 5 animals.\nTo determine forelimb and hindlimb motor coordination and balance, we performed the rotarod test as described previously. Also, the pole test was performed to measure bradykinesia. For the rotarod test, the animals were pre-trained on the rotating bar of a rotarod unit set (LE 8500, Letica, Spain) on days 18 and 19 before the test on day 20. During pre-training, three trials per day were performed (5 rpm rotation speed on the first day, 15 rpm rotation speed on the second day). Mice were kept on the rotating bar (7.3-cm diameter) for 5 min on each trial. On day 20, the time spent on the rotating bar at 20 rpm, which was defined as the latent period, was recorded. Performance was recorded as 300 s if the latent period exceeded 300 s. Mice had at least 5 min of rest between trials to reduce stress and fatigue. Each animal underwent three test trials, and the mean of the test results was subjected to statistical analysis. For the pole test, mice were held on the top of the pole (diameter 8 mm, height 55 cm, with a rough surface). The time to land down and place four fee on the floor was recorded as the time for locomotion activity (T-LA).\nOn day 21, mice were anesthetized with sodium pentobarbital (50 mg/kg intraperitoneally) and transcardially perfused with saline containing 0.5% sodium nitrate and heparin (10 U/mL) and then fixed with 4% PFA in 0.1 M phosphate-buffer (PB, pH 7.2). Dissected brains were post-fixed overnight in buffered 4% PFA at 4 °C and stored in a 30% sucrose solution until they sank. Brains were cryosectioned into 30 μm thick coronal sections in a Cryostat (Microsystems AG, Leica, Wetzlar, Germany) and stored until use at 4℃ in a cryoprotectant (25% ethylene glycol, 25% glycerol, 0.2 M PB, and water). All sections were collected in six separate series and processed for immunostaining.\nFree-floating brain sections were processed with the avidin-biotin peroxidase complex (ABC) complex (Vector Laboratories, Burlingame, CA, USA) method. Briefly, brain sections were incubated with primary rabbit anti-TH antibodies (1:1000; Pel-Freez Biologicals, Rogers, AR, USA) overnight at 4 °C, with biotinylated anti-rabbit IgG (1:400) for 1 h at room temperature, and then with the ABC solution (1:1:200) for 1 h at room temperature. The immunoperoxidase signals of TH was detected by incubating sections with 0.5 mg/ml 3,3′-diaminobenzidine (Sigma, St. Louis, MO, USA) in 0.1 M PB containing 0.003% H2O2. Stained brain sections were mounted on gelatin-coated slides and imaged under a bright-field microscope (Olympus Optical, Tokyo, Japan). TH-positivity in the ST was measured by the optical density of TH-positive fibers at x40 magnification using ImageJ software (National Institutes of Health, Bethesda, MD, USA). TH-positive cells in the SNpc in brain tissue Sect. (5 sections/series) were counted at x100 magnification as previously described. […]"}, "[3]": {"conditions": "Vuti 1, 50, 100 mg/kg/day or rasagiline 0.1 mg/kg/day orally for 21 days"}}, "data": [{"smiles": "CCOc1ccc(C2COc3c(ccc4c3CCC(C)(C)O4)C2)c(O)c1", "note": "(centres unmarked) [Vuti, Vutiglabridin]", "values": [{"measurement": "MPP+-induced reduction in OCR (basal respiration, ATP turnover rate, maximum respiratory capacity)", "setting": "[1]; 1 mM MPP+ 20 h, then Vuti 1~100 nM 24 h, Seahorse XF-24", "value": "dose-dependently and significantly rescued"}, {"measurement": "MPP+-induced mitochondrial damage (NADH dehydrogenase complex 1 activity, ATP content, DCF-DA ROS, MitoSOX superoxide)", "setting": "[1]; 1 mM MPP+ 24 h, then Vuti 0~1 µM 24 h", "value": "significantly reversed"}, {"measurement": "ATP production rates through glycolysis (GlycoATP) and mitochondria (mitoATP)", "setting": "[1]; 1 mM MPP+, post-treatment with Vuti", "value": "normalized"}, {"measurement": "concentration at which significant restoration of MPP+-induced damage was observed", "setting": "[1]; SH-SY5Y, 1 mM MPP+", "value": 1, "unit": "nM"}, {"measurement": "effect on T-LA in the pole test", "setting": "[2]; [3]", "value": "significantly normalized"}, {"measurement": "effect on latency to fall in the rotarod test", "setting": "[2]; [3]", "value": "significantly normalized"}, {"measurement": "number of TH-positive cells in the SNpc and fiber density in the ST", "setting": "[2]; Vuti 1, 50, 100 mg/kg/day oral, p < 0.001 vs. control, levels comparable to rasagiline", "value": "dose-dependently increased"}, {"measurement": "maximum efficacy dose", "setting": "[2]; no difference in neuroprotection between 50 and 100 mg/kg", "value": 50, "unit": "mg/kg"}]}]}
